These results are taken from patent publication US6740497B2, “Method and apparatus for detecting cancerous cells using molecules that change electrophoretic mobility” (The Regents of the University of California, priority 1998, dated 2004).

Peptide text beside a SMILES is read from it. * marks the point of attachment. 5FAM = O=C1OC2(c3ccc(O)cc3Oc3cc(O)ccc32)c2ccc(C(=O)*)cc21

Data set [1] has as its system protein kinase C (PKC). Kind of data set: Time course of intracellular Fl-sPKC phosphorylation by PKC in single NIH/3T3 cells (laser lysis, capillary electrophoresis). The format is cell-based, murine. Conditions: 100 nM PMA, 5 minute time point, room temperature, FIG. 12.
Data set [2] has as its system protein kinase C (PKC). Briefly: Intracellular Fl-sPKC phosphorylation by PKC in single Xenopus laevis oocytes (PERT CE sampling, MEKC). The format is cell-based. The method, then:
Oocytes 46′ were surgically obtained from pigmented or albino Xenopus laevis frogs and were cultured as described previously. Oocytes 46′ were microinjected by means of an injector mounted on a low power dissecting microscope (not shown) with 50 nl of reporter substrate peptide (0.5-200 μM) in buffer B, and then incubated for 30 min to permit diffusion of the peptide through the oocyte 46′. For measurements, oocytes 46′ were placed in buffer C (96 mM NaCl, 2 mM KCl, 1.8 mM CaCl2, 1 mM MgCl2, 5 mM Hepes, pH 7.6). When LPA (1-oleoyl-2-hydroxy-sn-glycero-3-phosphate, Avanti Polar Lipids, Alabaster, Ala.) was added to the oocytes 46′, fatty acid-free bovine serum albumen (5%) was used as a carrier as described previously.
All samples from the oocytes 46′ were obtained and electrophoresed by a method referred to as piezoelectric sampling/rapid translation/capillary electrophoresis (PERT CE). The apparatus used for PERT CE is illustrated in FIGS. 8A-B. FIGS. 8A and 8B are diagrammatic depictions of the components of the apparatus used to make measurements of intracellular enzyme activity from single Xenopus laevis oocytes 46′. […] The holder is part of a complete apparatus for automatically sampling oocyte cytoplasm and rapidly subjecting this sample to electrophoresis before any substantial change in the substrate molecules can occur. This is achieved by providing a sharpened electrophoresis capillary 22 attached to a high speed translation system to plunge the capillary into the cell to capture a plug of cytoplasm. Then the capillary is automatically withdrawn from the oocyte and rapidly moved to make electrical contact with a reservoir 134 of electrophoresis buffer so that electrophoresis of the substrate molecules within the “plug” commences before any additional chemical reactions occur.
To obtain cytoplasm, the capillary 22 was driven 60 μm into the oocyte 46′ by the piezoelectric element. […] The capillary 22 was then automatically withdrawn from the cytoplasm. […] Electrophoresis was initiated immediately. […]

In data set [3] the test system is protein kinase C (PKC). Briefly: Net intracellular PKC activity in single RBL cells: microinjected Fl-sPKC reporter, laser lysis, capillary electrophoresis, laser-induced fluorescence. The format is cell-based, rat. Conditions: RBL cell. Here is the method: FIGS. 2A-C and 3A-C are two sets of graphs of three stacked electrophoretograms of reporter substrate molecule separations all made under identical electrophoretic conditions on the same day. In the first embodiment, illustrated by FIGS. 2A-C and FIGS. 3A-C, rat basophilic leukemia (RBL) cells, from the tumor mast cell line RBL-2H3, were used. These cells were grown at 37° C. and 5% CO2 in Dulbecco's modified eagle medium (DMEM) supplemented with 10% fetal bovine serum, and L-glutamine ([…]). Penicillin (100 units/ml) and streptomycin (100 μg/ml) were added to the media to inhibit bacterial growth. […] The cells 46 were plated at concentrations determined empirically to produce approximately one cell per 100× field of view on the day of the measurement. […]
In the first embodiment, the microscopy system of FIG. 9 used for cell lysis was similar to that described previously in the incorporated application entitled “Fast Controllable Laser Lysis of Cells for Analysis”. The frequency-doubled Q-switched Nd:YAG laser 18 (Minilite II, Continuum, Santa Clara, Calif.; Minilase II-20, New Wave Research, Sunnyvale, Calif.) was used to generate a single pulse (1-25 μJ, 5-ns pulse width, 532 nm) directed into a fluorescence microscope 12 (Axiovert 135, Zeiss, Thornwood, N.Y.). […]

A further data set has as its system RBL cell. Briefly: Intracellular side reactions (degradation/modification) of the Fl-sPKC reporter in a microinjected RBL cell. The format is cell-based, rat. Conditions: 200 μM Pefabloc present, with or without PMA, FIGS. 2B and 2C. Here is the method:
In the measurements illustrated by FIG. 2A-C, prior to mounting on the microscope stage for microinjection and analysis at room temperature (20°-23° C.), each cell chamber 199 was treated by addition of 10 μl of 10 mM Pefabloc (Boehringer-Mannheim, Indianapolis, Ind.) in buffer A with gentle manually pipetted mixing using a Pipetman® (Rainin, Woburn, Mass.).
This yielded a final Pefabloc concentration of 200 μM. Pefabloc is a soluble, physiologically tolerated, inhibitor of serine proteases, a subset of intracellular enzymes that tend to degrade peptides. Pefabloc was included to minimize intracellular degradation of Fl-sPKC. […]
In the measurements illustrated by FIGS. 2A-C, Fl-sPKC was diluted in buffer B, a physiologically compatible intracellular buffer composed of 10 mM Hepes and 140 mM KCl, at pH 7.4. […] The cells 46 that had been successfully microinjected were identified by visual observation of internal Calcium Orange epi-fluorescence through a set of TRITC filters (Chroma Technology Corp., Brattleboro, Vt.) (not shown, but included in the microscope 12) to minimize photodestruction of the fluorescein moiety on Fl-sPKC. […]
Clearly activation of an intracellular kinase by a potent pharmacologic activator can be measured by this approach. Furthermore, both electrophoretograms in FIGS. 2B and 2C show the presence of peaks that cannot be readily identified. […]

For `CCCCCCCCCCCCCC(=O)O[C@@H]1[C@@H](C)[C@@]2(O)[C@@H](C=C(CO)C[C@]3(O)C(=O)C(C)=C[C@@H]23)[C@@H]2C(C)(C)[C@]12OC(C)=O` [PMA, phorbol myristic acid], in the data set on protein kinase C (PKC) [1], the “phosphorylation level of Fl-sPKC” value is reported as approximately 50%. Moreover, in the data set with protein kinase C (PKC) [2] (Xenopus oocyte, 10 μM PMA for 10 minutes, ~10 μM reporter substrate, FIG. 4D), the “collected fluorescence corresponding to P-Fl-sPKC” value is listed as “essentially all collected fluorescence”. The “degree of reporter substrate phosphorylation” value in the data set on protein kinase C (PKC) [2] (Xenopus oocyte, 10 μM PMA for three minutes, FIG. 5) was “intermediate degree of reporter substrate phosphorylation”. Moreover, in the data set with protein kinase C (PKC) [2] (Xenopus oocytes, 10 μM activator, intermediate time points, FIGS. 6A/6B), the “average rate of Fl-sPKC phosphorylation within oocytes” value was 25 ± 15 nM/s. Besides, in the data set with protein kinase C (PKC) [3] (100 nM PMA, 5 minutes, FIG. 2C), the “Fl-sPKC peak versus P-Fl-sPKC peak (net PKC activity)” value is given as “nearly equal magnitude”. The “PKC activation (peaks matching P-Fl-sPKC)” value with protein kinase C (PKC) [3] (1 μM PMA for 10 minutes before microinjection of Fl-sPKC and Fl-sPKA, FIG. 11C) is given as “small, but measurable amount of PKC activation”.

For the compound `CC(C)C[C@H](NC(=O)[C@H](CO)NC(=O)CNC(=O)[C@H](CCCCN)NC(=O)[C@H](CCCNC(=N)N)NC(=O)[C@H](C)NC(=O)[C@H](Cc1ccccc1)NC(=O)[C@H](CCCNC(=N)N)NC(=O)c1ccc2c(c1)C(=O)OC21c2ccc(O)cc2Oc2cc(O)ccc21)C(=O)N[C@@H](CCCNC(=N)N)C(=O)N[C@@H](CCC(N)=O)C(=O)N[C@@H](CCCCN)C(=O)N[C@@H](CC(N)=O)C(=O)N[C@H](C(=O)O)C(C)C` [Fl-sPKC, Fl- Arg-Phe-Ala-Arg-Lys-Gly-Ser-Leu-Arg-Gln-Lys-Asn-Val] (5FAM-RFARKGSLRQKNV-OH), the “side products as share of collected fluorescence” value in the data set on RBL cell is listed as “about 50%”.
